The first data set relates to P-gp.
Assay: not given
Also on record: method as in Aller paper [29]. Conditions: reported value; ref Aller paper [29]; read-out: IC50 for inhibition of verapamil-stimulated ATPase activity; cited from earlier work.
In general, IC50 refers to the concentration needed to halve the response being measured. For the molecule QZ59-RRR, the concentration for half-maximal inhibition (IC50) is 4.8 ± 2.6 µM.

The test system of the next data set is P-gp.
Assay: not given
Conditions: Table S4, Doan et al. dataset; both assays positive or both negative; cited from earlier work.
In the case of (S)-Levomeprazine, the P-gp interaction result is “Y”. For `O=C(O)c1cc(/N=N/c2ccc(S(=O)(=O)Nc3ccccn3)cc2)ccc1O` [Sulfasalazine_b*, Sulfasalazine], the P-gp interaction result was “N”.

For `NC12CC3CC(CC(C3)C1)C2` [Amantadine], the P-gp interaction entry is “N”. As to `NC(=O)N1c2ccccc2C=Cc2ccccc21` [Carbamazepine], the P-gp interaction entry is on record as “N”. `OC(CCN1CCCCC1)(c1ccccc1)C1CC2C=CC1C2` [(S)-Biperiden]: the P-gp interaction result is listed as “N”. Take `CN(C)CCCN1c2ccccc2CCc2ccccc21` [Imipramine]: the P-gp interaction result was “N”. Take `Cc1c(O)cccc1C(=O)N[C@@H](CSc1ccccc1)[C@H](O)CN1C[C@H]2CCCC[C@H]2C[C@H]1C(=O)NC(C)(C)C` [Nelfinavir]: the P-gp interaction entry is on record as “Y”.

For the molecule `C=CCOc1ccccc1OC[C@@H](O)CNC(C)C` [(S)-Oxprenolol], the P-gp interaction entry is recorded as “N”. With `c1ccc2c(c1)Sc1ccccc1N2C[C@H]1CN2CCC1CC2` [(R)-Mequitazine], the P-gp interaction result is recorded as “Y”. As for `COc1ccc2c(c1)c(CC(=O)O)c(C)n2C(=O)c1ccc(Cl)cc1` [Indomethacin], the P-gp interaction result is “N”. Consider `COc1ccc2c(c1)N(C[C@H](C)CN(C)C)c1ccccc1S2` [(R)-Levomeprazine], for which the P-gp interaction entry is “Y”. In the case of `CNC(C)(C)Cc1ccccc1` [Mephentermine], the P-gp interaction entry is “N”. Turning to `C=CCOc1ccccc1OC[C@H](O)CNC(C)C` [(R)-Oxprenolol], the P-gp interaction entry was “N”. Take `c1ccc2c(c1)Sc1ccccc1N2CC1CN2CCC1CC2` [(S)-Mequitazine]: the P-gp interaction result is “Y”. Regarding `CC(C)(C)NC(=O)[C@@H]1C[C@@H]2CCCC[C@@H]2CN1C[C@@H](O)[C@H](Cc1ccccc1)NC(=O)[C@H](CC(N)=O)NC(=O)c1ccc2ccccc2n1` [Saquinavir], the P-gp interaction entry is recorded as “Y”. On to `N=C(N)NC(=O)Cc1c(Cl)cccc1Cl` [Guanfacine], for which the P-gp interaction entry is reported as “N”. In the case of `CNCCCC1c2ccccc2C=Cc2ccccc21` [Protriptylene], the P-gp interaction entry is “Y”. Regarding `N=C(N)N/N=C/c1c(Cl)cccc1Cl` [Guanabenz], the P-gp interaction entry is “N”. Take `O=C(O)c1cc(/N=N/c2ccc(S(=O)(=O)Nc3ccccn3)cc2)ccc1O` [Sulfasalazine_a*, Sulfasalazine]: the P-gp interaction result was “N”. With `OC(CCN1CCCCC1)(c1ccccc1)C1CC2C=CC1C2` [(R)-Biperiden], the P-gp interaction result was “N”. On to `CN(C)C/C=C(/c1ccc(Br)cc1)c1cccnc1` [Zimeldine], for which the P-gp interaction entry is “N”. For `C=CCN1CC[C@]23c4c5ccc(O)c4O[C@H]2C(=O)CC[C@@]3(O)[C@H]1C5` [Naloxone], the P-gp interaction result is “N”. Consider `Clc1cccc(Cl)c1N=C1NCCN1` [Clonidine], for which the P-gp interaction result is on record as “N”. Consider `COCCc1ccc(OC[C@H](O)CNC(C)C)cc1` [(R)-Metoprolol], for which the P-gp interaction entry is “N”. `CNS(=O)(=O)Cc1ccc2[nH]cc(CCN(C)C)c2c1` [Sumatriptan]: the P-gp interaction result is “N”. Regarding `COCCc1ccc(OC[C@@H](O)CNC(C)C)cc1` [(S)-Metoprolol], the P-gp interaction entry was “N”. For `OC[C@@H](O)[C@@H](O)[C@H](O)[C@H](O)CO` [Mannitol], the P-gp interaction result is recorded as “N”.

The data set is the same for the next values; noted with them: Table S5, Doan et al. dataset; both assays positive or both negative; cited from earlier work.
Consider `O=C(O)c1cc(/N=N/c2ccc(S(=O)(=O)Nc3ccccn3)cc2)ccc1O` [Sulfasalazine], for which the P-gp interaction result is “N”.

The same data set, now with this note: not told; cited from earlier work.
As for `Nc1c2c(nc3ccccc13)CCCC2` [Tacrine], the P-gp interaction entry is on record as “N”. Regarding `CN(C)C(=O)C(CCN1CCC(O)(c2ccc(Cl)cc2)CC1)(c1ccccc1)c1ccccc1` [Loperamide], the P-gp interaction result is recorded as “Y”. For the molecule `CC(C)(C)c1ccc([C@@H](O)CCCN2CCC(C(O)(c3ccccc3)c3ccccc3)CC2)cc1` [(S)-terfenadine], the P-gp interaction entry is listed as “Y”. In the case of `CC(=O)C[C@@H](c1ccccc1)c1c(O)c2ccccc2oc1=O` [(S)-Warfarin], the P-gp interaction entry is recorded as “N”. With `CC(=O)C[C@H](c1ccccc1)c1c(O)c2ccccc2oc1=O` [(R)-Warfarin], the P-gp interaction result is “N”. In the case of `CCCC(C)(COC(N)=O)COC(N)=O` [Meprobamate], the P-gp interaction entry was “N”. `Cc1cc(=O)n(-c2ccccc2)n1C` [Antipyrine]: the P-gp interaction entry is recorded as “N”. With `CN(C)CCO[C@@](C)(c1ccccc1)c1ccccn1` [(S)-Doxylamine], the P-gp interaction entry is on record as “N”.

As to `CN(C)CCO[C@](C)(c1ccccc1)c1ccccn1` [(R)-Doxylamine], the P-gp interaction entry is listed as “N”. Regarding `CN(C)CC[C@@H](c1ccccc1)c1ccccn1` [(S)-Pheniramine], the P-gp interaction entry was “N”. For the molecule `COc1ccc(CCN2CCC(Nc3nc4ccccc4n3Cc3ccc(F)cc3)CC2)cc1` [Astemizole], the P-gp interaction result is on record as “Y”. As to `CN(C)CC[C@H](c1ccc(Cl)cc1)c1ccccn1` [(R)-Chlorpheniramine], the P-gp interaction result is given as “N”. As for `CC(C)(C)c1ccc([C@H](O)CCCN2CCC(C(O)(c3ccccc3)c3ccccc3)CC2)cc1` [(R)-terfenadine], the P-gp interaction entry is listed as “Y”. On to `CN(C)CC[C@@H](c1ccc(Cl)cc1)c1ccccn1` [(S)-Chlorpheniramine], for which the P-gp interaction entry is on record as “N”.

As for `CN[C@@]1(c2ccccc2Cl)CCCCC1=O` [(R)-Ketamine], the P-gp interaction entry is “N”. With `O=C1CN=C(c2ccccc2)c2cc([N+](=O)[O-])ccc2N1` [Nitrazepam], the P-gp interaction entry is reported as “N”. For `CN[C@]1(c2ccccc2Cl)CCCCC1=O` [(S)-Ketamine], the P-gp interaction result was “N”. As for `CN(C)CC[C@H](c1ccccc1)c1ccccn1` [(R)-Pheniramine], the P-gp interaction entry was “N”.

System in the next data set: not listed separately
Kind of data set: in vitro. To be noted: dog, MDCK-MDR1, pH 7.4.
Protocol: (§1) Permeability measurements were performed by Wuxi Apptec, using the following procedures.
(§2) Test compounds were diluted with the transport buffer (HBSS, pH 7.4) from a 10 mM stock solution to a concentration of 2 µM and applied to the apical (A) or basolateral (B) side of the cell monolayer. […] In addition, the efflux ratio of each compound was also determined. Test and reference compounds were quantified by LC-MS/MS analysis based on the peak area ratio of analyte/IS.
(§3) The apparent permeability coefficient Papp (cm/s) was calculated using the equation: [drawing 1] where dCr/dt is the cumulative concentration of compound in the receiver chamber as a function of time (µM/s); Vr is the solution volume in the receiver chamber (0.075 mL on the apical side, 0.25 mL on the basolateral side); A is the surface area for the transport, i.e. 0.084 cm^2 for the area of the monolayer; C0 is the initial concentration in the donor chamber (µM).
(§4) The efflux ratio (ER) was calculated using the equation: [drawing 2]
(§5) Percent recovery was calculated using the equation: [drawing 3] Where Vd is the volume in the donor chambers (0.075 mL on the apical side, 0.25 mL on the basolateral side); Cd and Cr are the final concentrations of transport compound in donor and receiver chambers, respectively. Cc is the compound concentration in the cell lysate solution (µM), and Vc is the volume of insert well (0.075 mL in this assay).
(§6) Permeability determinations were performed in triplicate and are reported as mean values.
Broadly, the Papp B→A is the apparent permeability from the basolateral to the apical side of a cell layer. Usually Papp stands for the rate of passage across a membrane or cell layer, normalised by area and donor concentration. In turn, `N#CCNC(=O)[C@H](Cc1c[nH]cn1)NC(=O)OCc1ccccc1` [Compound 9] had a Papp B→A at 150 min, 2 µM of 2.9 ×10⁻⁶ cm/s and a Papp at 150 min, 2 µM of 0.5 ×10⁻⁶ cm/s.

The test system of another data set is MDCK-MDR1 cells. As to the kind of experiment: MDCK-MDR1 monolayer permeability assay. To be noted: 2 µM, 150 min.
Protocol: as §1, §2, §3, §4, §5, §6
For `N#CCNC(=O)[C@H](Cc1c[nH]cn1)NC(=O)OCc1ccccc1` [Compound 9], the “Mean Efflux Ratio” value is reported as 5.8.

Still in this data set, the particulars now being: 2 µM, 150 min, 37°C, pH 7.4, triplicate mean.
With `N#CCNC(=O)[C@H](Cc1c[nH]cn1)NC(=O)OCc1ccccc1` [Compound 9], the “Mean Papp A to B” value is reported as 0.51 10^−6 cm/s.

The next data set concerns P-gp.
Assay: not given
Conditions: metabolites with favorable scores reassigned to the binders set; cited from earlier work.
Take `NC(Cc1cc(I)c(Oc2cc(I)c(O)c(I)c2)c(I)c1)C(=O)O` (stereo not shown) [Thyroxine**, Thyroxine]: the “Reported interaction with P-gp” value was “interact with P-gp”. For the molecule `C=C1CC[C@H](O)C/C1=C/C=C1\CCC[C@]2(C)[C@@H]([C@H](C)CCCC(C)C)CC[C@@H]12` [Vitamin D3**, Vitamin D3], the “Reported interaction with P-gp” value is listed as “interact with P-gp”. `CC(C)CCC[C@@H](C)[C@H]1CC[C@H]2[C@@H]3CC=C4C[C@@H](O)CC[C@]4(C)[C@H]3CC[C@]12C` [Cholesterol**, Cholesterol]: the “Reported interaction with P-gp” value is on record as “interact with P-gp”. Consider `CC(=O)[C@H]1CC[C@H]2[C@@H]3CCC4=CC(=O)CC[C@]4(C)[C@H]3CC[C@]12C` [Progesterone**, Progesterone], for which the “Reported interaction with P-gp” value is recorded as “interact with P-gp”.

(Values after PMC3121697, “Predicting Binding to P-Glycoprotein by Flexible Receptor Docking” (PLoS Computational Biology, 2011).)
